{"source": "patent US8455223B2", "about": "“Dehydrogenases, the derivatives thereof, and method for the production of optically active alkanols” (BASF SE, priority 2005, dated 2013)", "key": {"[1]": {"test_system": "ADH-3 enzyme SEQ ID NO: 2", "experiment": "Relative activity of dehydrogenase for various substrates, without cofactor regeneration (Example 1)", "type": "biochemical, Candida", "conditions": "37° C., approx. 20 hours, chiral gas chromatography", "method": "(§1) Relative activity of the dehydrogenases of the invention for various substrates (optical purity in % ee is indicated in brackets)\n(§2) The reaction was carried out without cofactor regeneration.\n(§3) 180 μl of 50 mM Kpi buffer, including 1 mM MgCl2\n(§4) 200 μl of NADPH, 10 mM stock solution\n(§5) 100 μl of substrate, 1 M stock solution 500 μl of hexane\n(§6) The reaction mixture was incubated at 37° C. and 1000 rpm for approx. 20 hours. It was then centrifuged at 20° C., the clear supernatant was removed and analyzed by chiral gas chromatography."}, "[2]": {"test_system": "ADH-4 enzyme SEQ ID NO: 4", "experiment": "Relative activity of dehydrogenase for various substrates, without cofactor regeneration (Example 1)", "type": "biochemical, Candida", "conditions": "37° C., approx. 20 hours, chiral gas chromatography", "method": "as §1, §2, §3, §4, §5, §6"}, "[3]": {"test_system": "Comparative enzyme EP 1152054 SEQ ID NO: 1", "experiment": "Relative activity of dehydrogenase for various substrates, without cofactor regeneration (Example 1)", "type": "biochemical", "conditions": "37° C., approx. 20 hours", "method": "as §1, §2, §3, §4, §5, §6"}, "[4]": {"test_system": "ADH-3 enzyme SEQ ID NO: 2", "experiment": "Relative activity of dehydrogenase for various substrates, with cofactor regeneration, monophasic liquid system (Example 2)", "type": "biochemical, Candida", "conditions": "cofactor regeneration with glucose and glucose dehydrogenase", "method": "(§7) Relative activity of the dehydrogenases of the invention for various substrates (optical purity in % ee is indicated in brackets) with cofactor regeneration.\n(§8) The reaction was carried out in a manner similar to example 1. Cofactor regeneration was carried out by way of addition of glucose and glucose dehydrogenase in a monophasic liquid system."}, "[5]": {"test_system": "Comparative enzyme EP 1152054 SEQ ID NO: 1", "experiment": "Relative activity of dehydrogenase for various substrates, with cofactor regeneration, monophasic liquid system (Example 2)", "type": "biochemical", "conditions": "cofactor regeneration with glucose and glucose dehydrogenase", "method": "as §7, §8"}, "[6]": {"test_system": "ADH-3 enzyme SEQ ID NO: 2", "experiment": "Relative activity of dehydrogenase for various substrates, with cofactor regeneration in the 2-phase system (Example 3)", "type": "biochemical, Candida"}, "[7]": {"test_system": "ADH-4 enzyme SEQ ID NO: 4", "experiment": "Relative activity of dehydrogenase for various substrates, with cofactor regeneration in the 2-phase system (Example 3)", "type": "biochemical, Candida"}, "[8]": {"test_system": "Comparative enzyme EP 1152054 SEQ ID NO: 1", "experiment": "Relative activity of dehydrogenase for various substrates, with cofactor regeneration in the 2-phase system (Example 3)", "type": "biochemical"}, "[9]": {"test_system": "ADH-4 enzyme SEQ ID NO: 4", "experiment": "Relative activity of dehydrogenase for various substrates, with cofactor regeneration, monophasic liquid system (Example 2)", "type": "biochemical, Candida", "conditions": "cofactor regeneration with glucose and glucose dehydrogenase", "method": "as §7, §8"}, "[10]": {"conditions": "ADH-3 enzyme, cofactor regeneration, two-phase liquid system (MTBE: aqueous)"}, "[11]": {"conditions": "ADH-4 enzyme, cofactor regeneration, two-phase liquid system (MTBE: aqueous)"}, "[12]": {"conditions": "cofactor regeneration, two-phase liquid system (MTBE: aqueous)"}}, "data": [{"molecule": "CC(=O)c1ccccc1", "note": "[Acetophenone]", "values": [{"measurement": "Relative activity", "setting": "[1]", "result": 16.08}, {"measurement": "Relative activity", "setting": "[2]", "result": 3.14}, {"measurement": "Relative activity", "setting": "[3]", "result": 0.84}, {"measurement": "Relative activity", "setting": "[4]", "result": 8.9}, {"measurement": "Relative activity", "setting": "[5]", "result": 0.7}, {"measurement": "Relative activity", "setting": "[6]; [10]", "result": 71.2}, {"measurement": "Relative activity", "setting": "[7]; [11]", "result": 0.4}, {"measurement": "Relative activity", "setting": "[8]; [12]", "result": 0.2}]}, {"molecule": "4-chloro-methoxyacetophenone [CMAP]", "values": [{"measurement": "Relative activity", "setting": "[1]", "result": 34.46}, {"measurement": "Relative activity", "setting": "[2]", "result": 24.89}, {"measurement": "Relative activity", "setting": "[3]", "result": 29.44}, {"measurement": "Relative activity", "setting": "[6]; [10]", "result": 100}, {"measurement": "Relative activity", "setting": "[7]; [11]", "result": 77.1}, {"measurement": "Relative activity", "setting": "[8]; [12]", "result": 46.8}]}, {"molecule": "O=C(CCl)c1cccc(Cl)c1", "note": "[m-DICAP, 2,3′-dichloro-acetophenone]", "values": [{"measurement": "Relative activity", "setting": "[1]", "result": 100}, {"measurement": "Relative activity", "setting": "[2]", "result": 56.38}, {"measurement": "Relative activity", "setting": "[3]", "result": 2.3}, {"measurement": "Relative activity", "setting": "[4]", "result": 100}, {"measurement": "Relative activity", "setting": "[9]", "result": 55.8}, {"measurement": "Relative activity", "setting": "[5]", "result": 47.1}, {"measurement": "Relative activity", "setting": "[6]", "result": 100}, {"measurement": "Relative activity", "setting": "[7]", "result": "24.6 (6% S)"}, {"measurement": "Relative activity", "setting": "[8]; […]", "result": "14 (>99% R)"}]}, {"molecule": "O=C(CCl)c1ccc(Cl)cc1", "note": "[p-DICAP, 2,4′-dichloro-acetophenone]", "values": [{"measurement": "Relative activity", "setting": "[4]", "result": 18.9}, {"measurement": "Relative activity", "setting": "[9]", "result": 62.1}, {"measurement": "Relative activity", "setting": "[5]", "result": 62.5}, {"measurement": "Relative activity", "setting": "[6]", "result": "30.4 (>99% R)"}, {"measurement": "Relative activity", "setting": "[7]", "result": "27.6 (42% S)"}, {"measurement": "Relative activity", "setting": "[8]; […]", "result": "24.2 (>99% R)"}]}, {"molecule": "O=C(CCl)c1ccc(F)cc1", "note": "[FCA, 4′-fluoro-2-chloro-acetophenone]", "values": [{"measurement": "Relative activity", "setting": "[4]", "result": 99.5}, {"measurement": "Relative activity", "setting": "[9]", "result": 53.6}, {"measurement": "Relative activity", "setting": "[5]", "result": 50.4}, {"measurement": "Relative activity", "setting": "[6]", "result": 99.5}, {"measurement": "Relative activity", "setting": "[7]", "result": 15.3}, {"measurement": "Relative activity", "setting": "[8]; […]", "result": 12.6}]}]}
